For one data set, the system named is WT HIV-1 (strain IIIB). The experiment in a line: microbe, parasite or virus in culture. The format is cell-based. The method, then:
(§1) The newly synthesized compounds were evaluated for their potency and cytotoxicity against the WT HIV-1 (strain IIIB) in MT-4 cells using the MTT method. The biological evaluation results are represented as EC50 values (anti-HIV-1 activity), CC50 values (cytotoxicity), and SI values (selectivity index, CC50/EC50 ratio).

A short description of data set [1]: Cytotoxicity in uninfected MT-4 cells, MTT method. The note with it: human. Format: cell-based. The method, then: as §1
(Tetrazolium assays rely on reduction of a dye to a coloured formazan, in cell work by metabolically active cells.)

For data set [2], the system named is L100I mutant HIV-1 strain. The experiment in a line: Anti-HIV-1 activity against L100I mutant strain in MT-4 cells. Format: cell-based.
Data set [3] concerns E138K mutant HIV-1 strain. The data set is described as follows: Anti-HIV-1 activity against E138K mutant strain in MT-4 cells. Format: cell-based.
For data set [4], the system named is Y181C mutant HIV-1 strain. The data set is described as follows: Anti-HIV-1 activity against Y181C mutant strain in MT-4 cells. Format: cell-based.
Data set [5] concerns K103N mutant HIV-1 strain. The experiment in a line: Anti-HIV-1 activity against K103N mutant strain in MT-4 cells. Format: cell-based.
The subject of data set [6] is Y188L mutant HIV-1 strain. The experiment in a line: Anti-HIV-1 activity against Y188L mutant strain in MT-4 cells. Format: cell-based.
Data set [7] relates to F227L + V106A double RT mutant HIV-1 strain. The data set is described as follows: Anti-HIV-1 activity against F227L + V106A double mutant strain in MT-4 cells. Format: cell-based.
In data set [8] the test system is K103N + Y181C double RT mutant HIV-1 strain. The data set is described as follows: Anti-HIV-1 activity against K103N + Y181C double mutant strain in MT-4 cells. Format: cell-based.
For another data set, the system named is MT-4 cells. The experiment in a line: Cytotoxicity in uninfected MT-4 cells, MTT method. The note with it: uninfected MT-4 cells; viability reduced by 50%. Format: cell-based. The method, then: as §1
A further data set addresses WT HIV-1 RT (Human immunodeficiency virus type 1 group M subtype B, UniProt P03366). The data set is described as follows: Enzymatic assay against WT HIV-1 RT. The settings on record: read-out: IC50 WT HIV-1 RT polymerase activity.
The conditions of data set [9]: cited from earlier work.
The test system of a further data set is WT HIV-1. The settings on record: cited from earlier work.
Where [10] appears, read: Human immunodeficiency virus 1, IIIB, MT4, MT-4 cells, protection against virus-induced cytopathicity by 50%, mean of at least three experiments, read-out: EC50 HIV-1 IIIB.
[11] abbreviates: Human immunodeficiency virus 1, MT4, read-out: EC50 L100I.
Setting [12] is: Human immunodeficiency virus 1, MT4, read-out: EC50 E138K.
Where [13] appears, read: Human immunodeficiency virus 1, MT4, read-out: EC50 Y181C.
[14] abbreviates: Human immunodeficiency virus 1, MT4, read-out: EC50 K103N.
[15] abbreviates: Human immunodeficiency virus 1, MT4, read-out: EC50 Y188L.
[16] abbreviates: Human immunodeficiency virus 1, MT4, read-out: EC50 F227L + V106A.
[17] abbreviates: Human immunodeficiency virus 1, MT4, read-out: EC50 K103N + Y181C.
Setting [18] is: MT-4 cells, protection against virus-induced cytopathicity by 50%, mean of at least three experiments, read-out: EC50 HIV-1 IIIB.
Setting [19] is: MT-4 cells, read-out: EC50 L100I.
The mark [20] stands for this setting: MT-4 cells, read-out: EC50 E138K.
[21] abbreviates: MT-4 cells, read-out: EC50 Y181C.
Setting [22] is: MT-4 cells, read-out: EC50 K103N.
[23] abbreviates: MT-4 cells, read-out: EC50 Y188L.
[24] abbreviates: MT-4 cells, read-out: EC50 F227L + V106A.
Setting [25] is: MT-4 cells, read-out: EC50 K103N + Y181C.
The mark [26] stands for this setting: uninfected MT-4 cells, viability reduced by 50%, read-out: CC50.
The mark [27] stands for this setting: statement in the introduction, no reference given.

Read-outs that look alike come from different tables or passages of the source.

Usually EC50 stands for the midpoint of the concentration-response curve. A word on the IC50: it is the concentration that inhibits the measured activity by half.

Description for WT HIV-1 RT: The enzymatic assay against WT HIV-1 RT was conducted for most compounds (Table 2).

On to `Nc1ccn([C@@H]2CS[C@H](CO)O2)c(=O)n1` [Compound 3TC, lamivudine, reference compound], for which the EC50 in the data set with WT HIV-1 (strain IIIB) (setting [10]) was found to be 7.88 ± 3.15 µM; in data set [2] (setting [11]) it was 1.96 ± 0.29 µM; in data set [3] (setting [12]) it was 5.06 ± 0.9 µM; in data set [4] (setting [13]), 4.74 ± 1.31 µM; in data set [5] (setting [14]) it was 3.98 ± 0.76 µM; in data set [6] (setting [15]), 3.42 ± 0.95 µM. Besides, the concentration giving a half-maximal response (EC50) in data set [7] (setting [16]) amounted to 2.69 ± 0.87 µM; in data set [8] (setting [17]) it was 5.5 ± 1.31 µM. In data set [1], this compound came in with a CC50 greater than 87.2 µM.

`Cc1cccc(-c2ccc(C(C#N)c3ccnc(Nc4ccc(C#N)cc4)n3)c(F)c2)c1` (racemic) [Compound 10e, (±)-4-((4-(cyano(3-fluoro-3′-methyl-[1,1′-biphenyl]-4-yl)methyl)pyrimidin-2-yl)amino)benzonitrile]: the concentration giving a half-maximal response (EC50) in the data set with WT HIV-1 (strain IIIB) (setting [18]) is 0.43 ± 0.07 µM; in data set [2] (setting [19]), 9.14 ± 3.61 µM; in data set [3] (setting [20]) it was 3.59 ± 1.03 µM; in data set [4] (setting [21]) it was greater than 26.9 µM; in [5] (setting [22]) it was greater than 26.9 µM; in data set [6] (setting [23]) it was greater than 26.9 µM. For the same compound, the EC50 in data set [7] (setting [24]) and in [8] (setting [25]) was greater than 26.9 µM each time. The same compound came in with a CC50 with MT-4 cells of 26.9 ± 3.78 µM. Besides, the IC50 at WT HIV-1 RT turned out to be 0.101 ± 0.059 µM.

On to `Cc1cc(C#N)cc(C)c1Oc1nc(Nc2ccc(C#N)cc2)nc(N)c1Br` [ETR, etravirine, reference compound], for which the EC50 in the data set with WT HIV-1 (strain IIIB) (Human immunodeficiency virus 1, MT4, read-out: EC50 HIV-1 IIIB) stood at 0.0045 ± 0.001 µM; in [2] (setting [11]) it was 0.008 ± 0.002 µM; in [3] (setting [12]), 0.008 ± 0.004 µM; in data set [4] (setting [13]), 0.017 ± 0.003 µM; in data set [5] (setting [14]) it was 0.003 ± 0.001 µM; in data set [6] (setting [15]) it was 0.017 ± 0.006 µM. For the same compound, the 50% effective concentration (EC50) is 0.014 ± 0.005 µM in [7] (setting [16]) and 0.04 ± 0.01 µM in data set [8] (setting [17]). For the same compound, the values for the CC50 in data set [1] (setting [26]) and in [9] (setting [27]) were greater than 4.6 µM and roughly 6 µM, respectively.

Turning to `Cc1cc(/C=C/C#N)cc(C)c1Nc1ccnc(Nc2ccc(C#N)cc2)n1` [RPV, rilpivirine, reference compound], the concentration giving a half-maximal response (EC50) in the data set on WT HIV-1 (strain IIIB) (setting [10]) turned out to be 0.0016 ± 0.0003 µM; in data set [2] (setting [11]), 0.002 ± 0.001 µM; in data set [3] (setting [12]) it was 0.003 ± 0.001 µM; in data set [4] (setting [13]), 0.003 ± 0.001 µM; in data set [5] (setting [14]) it was 0.001 ± 0.0002 µM; in data set [6] (setting [15]), 0.03 ± 0.009 µM. Besides, the half-maximal effective concentration (EC50) in [7] (setting [16]) was 0.044 ± 0.012 µM; in data set [8] (setting [17]) it was 0.009 ± 0.002 µM. Also, the CC50 in data set [1] (setting [26]) is 5.89 ± 0.31 µM; in data set [9] (setting [27]), roughly 6 µM.

For `Cc1cc(-c2ccc(C#N)cc2)cc(C)c1Nc1ccnc(Nc2ccc(C#N)cc2)n1` [Compound 2], the EC50 in the data set with WT HIV-1 (read-out: EC50 WT HIV-1) is 0.001 ± 0.0006 µM. In addition, the CC50 in [9] (lead compound) was 2.1 µM.

Turning to `Cc1cc(C(C#N)c2ccccc2F)nc(Nc2ccc(C#N)cc2)n1` (stereo not shown) [Compound 1], in the data set on WT HIV-1 (read-out: EC50 anti-HIV potency), the EC50 is 0.0018 µM.

On to `Cc1ccnc2c1NC(=O)c1cccnc1N2C1CC1` [NVP, nevirapine, reference compound], for which the EC50 in the data set with WT HIV-1 (strain IIIB) (setting [10]) was 0.2 ± 0.1 µM; in data set [2] (setting [11]), 0.98 ± 0.39 µM; in data set [3] (setting [12]), 0.2 ± 0.15 µM; in [4] (setting [13]), 6.07 ± 1.55 µM; in data set [5] (setting [14]), 4.7 ± 0.63 µM; in data set [6] (setting [15]) it was no less than 4.62 µM. The concentration for a half-maximal effect (EC50) is no less than 4.28 µM in data set [7] (setting [16]) and greater than 15 µM in [8] (setting [17]). Besides, the CC50 in data set [1] (setting [26]) is greater than 15 µM.

On to `N#Cc1ccc(Nc2nccc(C(C#N)c3ccc(-c4ccccc4)c(F)c3)n2)cc1` (racemic) [Compound 10b, (±)-4-((4-(cyano(2-fluoro-[1,1′-biphenyl]-4-yl)methyl)pyrimidin-2-yl)amino)benzonitrile], for which the 50% effective concentration (EC50) is 4.96 ± 0.56 µM in the data set on WT HIV-1 (strain IIIB) (setting [18]); no less than 27.3 µM in [2] (setting [19]); 9.29 ± 1.37 µM in [3] (setting [20]); greater than 27.3 µM in [4] (setting [21]); greater than 27.3 µM in [5] (setting [22]); greater than 27.3 µM in data set [6] (setting [23]). In addition, the EC50 in [7] (setting [24]) and in data set [8] (setting [25]) was greater than 27.3 µM each time. For the same compound, in the data set on MT-4 cells, the CC50 was found to be 27.3 ± 5.85 µM. Also, on WT HIV-1 RT, the half-maximal inhibitory concentration (IC50) was 0.46 ± 0.162 µM.
